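Tested at 5 concentrations; 48 h exposure; 96-well plates; endpoints linearly interpolated, else capped at highest concentration. GI50: concentration for 50% inhibition of growth.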 Active and inactive are the calls of the source. Rule as the data show it: active = GI50 up to about 1.1 µM and inactive = higher.
Assays:
Assay in all cases: inhibition of tumour cell growth, NCI panel, 48 h
[1] = system: U-251
[2] = system: MDA-MB-231
[3] = system: OVCAR-4
[4] = system: MDA-N
[5] = system: UO-31
[6] = system: Hs-578T
[7] = system: DU-145
[8] = system: OVCAR-5
[9] = system: RPMI-8226
[10] = system: UACC-62
[11] = system: PC-3
[12] = system: SF-295
[13] = system: A498
[14] = system: SR
[15] = system: IGROV-1
[16] = system: SNB-75

Row | SMILES | GI50 [1] | GI50 [2] | GI50 [3] | GI50 [4] | GI50 [5] | GI50 [6] | GI50 [7] | GI50 [8] | GI50 [9] | GI50 [10] | GI50 [11] | GI50 [12] | GI50 [13] | GI50 [14] | GI50 [15] | GI50 [16]
1 | Clc1ccc(COC(Cn2ccnc2)c2ccc(Cl)cc2Cl)c(Cl)c1 (stereo unspecified) [MICONAZOLE] | 11.7 µM (inactive) | 12.6 µM (inactive) | 10.1 µM (inactive) | 4.8 µM (inactive) | 3.82 µM (inactive) | 13.4 µM (inactive) | 15.7 µM (inactive) | 17.7 µM (inactive) | 8.65 µM (inactive) | 11.5 µM (inactive) | 7.08 µM (inactive) | 11.2 µM (inactive) |  |  |  | 
2 | CC1(C)[C@H]2CC[C@@]13C(=O)N1C(=O)O[C@@H]([C@H]1Cl)C(Cl)(COCc1ccccc1)C(=O)OCCO[C@H]3C2 (stereo partly specified) | 39.4 µM (inactive) |  | 40.6 µM (inactive) | 64.9 µM (inactive) | 96.4 µM (inactive) | 88.1 µM (inactive) |  | > 100 µM (inactive) | 28.2 µM (inactive) | 83.6 µM (inactive) | 38.2 µM (inactive) | 51.1 µM (inactive) | > 100 µM (inactive) | 39.7 µM (inactive) | > 100 µM (inactive) | > 100 µM (inactive)
3 | Cn1c(N)c(Cc2ccc(Cl)cc2)c(=O)[nH]c1=O |  | > 100 µM (inactive) |  | > 100 µM (inactive) | > 100 µM (inactive) | > 100 µM (inactive) | > 100 µM (inactive) | > 100 µM (inactive) | > 100 µM (inactive) | > 100 µM (inactive) |  | > 100 µM (inactive) | > 100 µM (inactive) | > 100 µM (inactive) | > 100 µM (inactive) | 62.8 µM (inactive)
4 | CCOP(=O)(OCC)C(Nc1ccc(Br)cc1)c1cccc([N+](=O)[O-])c1 (stereo unspecified) | 18.2 µM (inactive) | 15 µM (inactive) | 21.4 µM (inactive) | 19.2 µM (inactive) | 10.8 µM (inactive) | 21.3 µM (inactive) | 32.8 µM (inactive) | 24.1 µM (inactive) | 28.2 µM (inactive) | 14.7 µM (inactive) |  | 12.9 µM (inactive) | 13.3 µM (inactive) | 18.1 µM (inactive) | 22.1 µM (inactive) | 29.2 µM (inactive)
5 | COC(=O)[C@H](Cc1c[nH]c2ccccc12)NC(=O)c1ccc(CNC(=O)/C(C)=C/c2ccccc2)cc1 | 80 µM (inactive) | 17.8 µM (inactive) | 30.3 µM (inactive) | 19.8 µM (inactive) | 63.7 µM (inactive) |  | 32.5 µM (inactive) | > 100 µM (inactive) | 46 µM (inactive) | 20.9 µM (inactive) | 20.7 µM (inactive) | 60.1 µM (inactive) | 22.6 µM (inactive) | 28.6 µM (inactive) | 32.1 µM (inactive) | 0.497 µM (active)
6 | COc1cc(OC)c(C/C=C/c2ccccc2)cc1O | 16.7 µM (inactive) | 17.9 µM (inactive) | 14 µM (inactive) | 18.1 µM (inactive) | 14.7 µM (inactive) | 16.8 µM (inactive) | 17.1 µM (inactive) | 26.6 µM (inactive) | 14.9 µM (inactive) | 15.5 µM (inactive) | 17.1 µM (inactive) |  | 14.8 µM (inactive) |  | 16.3 µM (inactive) | 14.6 µM (inactive)
7 | CN(C)/N=N/c1nc2c(c(=O)n(C)c(=O)n2C)n1CC(O)CO (stereo unspecified) | > 100 µM (inactive) | > 100 µM (inactive) | > 100 µM (inactive) | > 100 µM (inactive) | > 100 µM (inactive) | > 100 µM (inactive) | > 100 µM (inactive) | > 100 µM (inactive) | > 100 µM (inactive) | > 100 µM (inactive) | > 100 µM (inactive) | > 100 µM (inactive) |  |  | > 100 µM (inactive) | > 100 µM (inactive)
8 | Cc1nnc2c3c(-c4ccccc4)c(-c4ccccc4)oc3nc(N(C)C)n12 | 51.2 µM (inactive) | > 100 µM (inactive) | > 100 µM (inactive) |  | 21.4 µM (inactive) | 21.3 µM (inactive) | > 100 µM (inactive) | 51.5 µM (inactive) | 20.1 µM (inactive) | 39.2 µM (inactive) |  | 37.6 µM (inactive) | 65.2 µM (inactive) | 16.7 µM (inactive) | 85.1 µM (inactive) | 15.5 µM (inactive)
9 | Cc1ccc(C(=O)C2=CN=C3C(=O)N(c4ccccc4)N(C)C3(C)C2=N)cc1 (stereo unspecified) | > 100 µM (inactive) | > 100 µM (inactive) | > 100 µM (inactive) | > 100 µM (inactive) | > 100 µM (inactive) |  | > 100 µM (inactive) | > 100 µM (inactive) | > 100 µM (inactive) | > 100 µM (inactive) | > 100 µM (inactive) | > 100 µM (inactive) | > 100 µM (inactive) | > 100 µM (inactive) | > 100 µM (inactive) | > 100 µM (inactive)

Source: ChEMBL document CHEMBL1201862, “PubChem BioAssay data set” (2004)
